Source: the NIST ThermoML archive (doi:10.1021/je900164a)

Assay: xn = mol fraction of the nth substance listed
Details: 101 kPa, Liquid, Vibrating tube method

CNC(=O)NC [1,3-dimethylurea] + O
Details	mass density [kg/m3]
274.15 K, x1 = 0.000898	1000.36
274.15 K, x1 = 0.0018	1000.83
274.15 K, x1 = 0.00448	1002.26
274.15 K, x1 = 0.00893	1004.68
274.15 K, x1 = 0.01771	1009.58
274.15 K, x1 = 0.02461	1013.5
274.15 K, x1 = 0.03141	1017.27
274.15 K, x1 = 0.03815	1021.02
274.15 K, x1 = 0.04471	1024.43
274.15 K, x1 = 0.05126	1027.8
274.15 K, x1 = 0.06722	1035.64
274.15 K, x1 = 0.08246	1042.41
275.15 K, x1 = 0.000898	1000.39
275.15 K, x1 = 0.0018	1000.85
275.15 K, x1 = 0.00448	1002.25
275.15 K, x1 = 0.00893	1004.65
275.15 K, x1 = 0.01771	1009.48
275.15 K, x1 = 0.02461	1013.35
275.15 K, x1 = 0.03141	1017.12
275.15 K, x1 = 0.03815	1020.73
275.15 K, x1 = 0.04471	1024.13
275.15 K, x1 = 0.05126	1027.45
275.15 K, x1 = 0.06722	1035.23
275.15 K, x1 = 0.08246	1042.02
276.15 K, x1 = 0.000898	1000.4
276.15 K, x1 = 0.0018	1000.86
276.15 K, x1 = 0.00448	1002.26
276.15 K, x1 = 0.00893	1004.64
276.15 K, x1 = 0.01771	1009.4
276.15 K, x1 = 0.02461	1013.24
276.15 K, x1 = 0.03141	1016.94
276.15 K, x1 = 0.03815	1020.54
276.15 K, x1 = 0.04471	1023.92
276.15 K, x1 = 0.05126	1027.2
276.15 K, x1 = 0.06722	1034.87
276.15 K, x1 = 0.08246	1041.67
277.15 K, x1 = 0.000898	1000.41
277.15 K, x1 = 0.0018	1000.87
277.15 K, x1 = 0.00448	1002.27
277.15 K, x1 = 0.00893	1004.63
277.15 K, x1 = 0.01771	1009.35
277.15 K, x1 = 0.02461	1013.14
277.15 K, x1 = 0.03141	1016.8
277.15 K, x1 = 0.03815	1020.37
277.15 K, x1 = 0.04471	1023.74
277.15 K, x1 = 0.05126	1027.03
277.15 K, x1 = 0.06722	1034.56
277.15 K, x1 = 0.08246	1041.26
278.15 K, x1 = 0.000898	1000.41
278.15 K, x1 = 0.0018	1000.86
278.15 K, x1 = 0.00448	1002.23
278.15 K, x1 = 0.00893	1004.56
278.15 K, x1 = 0.01771	1009.26
278.15 K, x1 = 0.02461	1013.05
278.15 K, x1 = 0.03141	1016.7
278.15 K, x1 = 0.03815	1020.22
278.15 K, x1 = 0.04471	1023.58
278.15 K, x1 = 0.05126	1026.87
278.15 K, x1 = 0.06722	1034.3
278.15 K, x1 = 0.08246	1040.88
278.15 K, x1 = 0.09755	1046.81
279.18 K, x1 = 0.000898	1000.38
279.18 K, x1 = 0.0018	1000.83
279.18 K, x1 = 0.00448	1002.19
279.18 K, x1 = 0.00893	1004.5
279.18 K, x1 = 0.01771	1009.16
279.18 K, x1 = 0.02461	1012.89
279.18 K, x1 = 0.03141	1016.44
279.18 K, x1 = 0.03815	1019.9
279.18 K, x1 = 0.04471	1023.29
279.18 K, x1 = 0.05126	1026.57
279.18 K, x1 = 0.06722	1033.9
279.18 K, x1 = 0.08246	1040.45
279.18 K, x1 = 0.09755	1046.32
280.15 K, x1 = 0.000898	1000.35
280.15 K, x1 = 0.0018	1000.78
280.15 K, x1 = 0.00448	1002.14
280.15 K, x1 = 0.00893	1004.44
280.15 K, x1 = 0.01771	1009.05
280.15 K, x1 = 0.02461	1012.74
280.15 K, x1 = 0.03141	1016.24
280.15 K, x1 = 0.03815	1019.66
280.15 K, x1 = 0.04471	1023.02
280.15 K, x1 = 0.05126	1026.26
280.15 K, x1 = 0.06722	1033.52
280.15 K, x1 = 0.08246	1040.01
280.15 K, x1 = 0.09755	1045.78
281.15 K, x1 = 0.000898	1000.29
281.15 K, x1 = 0.0018	1000.73
281.15 K, x1 = 0.00448	1002.06
281.15 K, x1 = 0.00893	1004.34
281.15 K, x1 = 0.01771	1008.91
281.15 K, x1 = 0.02461	1012.56
281.15 K, x1 = 0.03141	1016
281.15 K, x1 = 0.03815	1019.47
281.15 K, x1 = 0.04471	1022.79
281.15 K, x1 = 0.05126	1025.97
281.15 K, x1 = 0.06722	1033.21
281.15 K, x1 = 0.08246	1039.61
281.15 K, x1 = 0.09755	1045.39
282.15 K, x1 = 0.000898	1000.22
282.15 K, x1 = 0.0018	1000.65
282.15 K, x1 = 0.00448	1001.98
282.15 K, x1 = 0.00893	1004.22
282.15 K, x1 = 0.01771	1008.75
282.15 K, x1 = 0.02461	1012.36
282.15 K, x1 = 0.03141	1015.77
282.15 K, x1 = 0.03815	1019.19
282.15 K, x1 = 0.04471	1022.47
282.15 K, x1 = 0.05126	1025.61
282.15 K, x1 = 0.06722	1032.76
282.15 K, x1 = 0.08246	1039.05
282.15 K, x1 = 0.09755	1044.75
283.15 K, x1 = 0.000898	1000.13
283.15 K, x1 = 0.0018	1000.57
283.15 K, x1 = 0.00448	1001.88
283.15 K, x1 = 0.00893	1004.12
283.15 K, x1 = 0.01771	1008.6
283.15 K, x1 = 0.02461	1012.17
283.15 K, x1 = 0.03141	1015.58
283.15 K, x1 = 0.03815	1019.01
283.15 K, x1 = 0.04471	1022.23
283.15 K, x1 = 0.05126	1025.27
283.15 K, x1 = 0.06722	1032.44
283.15 K, x1 = 0.08246	1038.58
283.15 K, x1 = 0.09755	1044.35
288.15 K, x1 = 0.000898	999.526
288.15 K, x1 = 0.0018	999.93
288.15 K, x1 = 0.00448	1001.23
288.15 K, x1 = 0.00893	1003.35
288.15 K, x1 = 0.01771	1007.67
288.15 K, x1 = 0.02461	1011.04
288.15 K, x1 = 0.03141	1014.35
288.15 K, x1 = 0.03815	1017.55
288.15 K, x1 = 0.04471	1020.59
288.15 K, x1 = 0.05126	1023.54
288.15 K, x1 = 0.06722	1030.34
288.15 K, x1 = 0.08246	1036.44
288.15 K, x1 = 0.09755	1041.6
298.15 K, x1 = 0.000898	997.452
298.15 K, x1 = 0.0018	997.853
298.15 K, x1 = 0.00448	999.058
298.15 K, x1 = 0.00893	1001.08
298.15 K, x1 = 0.01771	1005.1
298.15 K, x1 = 0.02461	1008.24
298.15 K, x1 = 0.03141	1011.28
298.15 K, x1 = 0.03815	1014.24
298.15 K, x1 = 0.04471	1017.04
298.15 K, x1 = 0.05126	1019.75
298.15 K, x1 = 0.06722	1025.98
298.15 K, x1 = 0.08246	1031.41
298.15 K, x1 = 0.09755	1036.31
308.15 K, x1 = 0.000898	994.42
308.15 K, x1 = 0.0018	994.802
308.15 K, x1 = 0.00448	995.947
308.15 K, x1 = 0.00893	997.861
308.15 K, x1 = 0.01771	1001.7
308.15 K, x1 = 0.02461	1004.63
308.15 K, x1 = 0.03141	1007.43
308.15 K, x1 = 0.03815	1010.16
308.15 K, x1 = 0.04471	1012.76
308.15 K, x1 = 0.05126	1015.27
308.15 K, x1 = 0.06722	1021.16
308.15 K, x1 = 0.08246	1026.06
308.15 K, x1 = 0.09755	1030.33
